Experimental data: patent US11591323B2, “Muscarinic agonists as non-steroidal and non-opioid analgesics and methods of use thereof” (Barry University, priority 2019, dated 2023)

Key:
Type in all cases: cell-based
[1] = target: T1, M5 muscarinic receptor (Homo sapiens, UniProt P08912); assay: accumulation of IPX, M5 CHO cells transfected with G15 (M5Gq+G15); design: expressed in transfected cells; host or cells: CHO cells; conditions: for EC50 / E′MAX / τ: Table 8; for Kd: Table 8, read-out: pKA (converted); for RAi: Table 8, relative to carbachol; for Δlog(τ/KA): Table 8, to carbachol
T1 sequence (P08912 1-532): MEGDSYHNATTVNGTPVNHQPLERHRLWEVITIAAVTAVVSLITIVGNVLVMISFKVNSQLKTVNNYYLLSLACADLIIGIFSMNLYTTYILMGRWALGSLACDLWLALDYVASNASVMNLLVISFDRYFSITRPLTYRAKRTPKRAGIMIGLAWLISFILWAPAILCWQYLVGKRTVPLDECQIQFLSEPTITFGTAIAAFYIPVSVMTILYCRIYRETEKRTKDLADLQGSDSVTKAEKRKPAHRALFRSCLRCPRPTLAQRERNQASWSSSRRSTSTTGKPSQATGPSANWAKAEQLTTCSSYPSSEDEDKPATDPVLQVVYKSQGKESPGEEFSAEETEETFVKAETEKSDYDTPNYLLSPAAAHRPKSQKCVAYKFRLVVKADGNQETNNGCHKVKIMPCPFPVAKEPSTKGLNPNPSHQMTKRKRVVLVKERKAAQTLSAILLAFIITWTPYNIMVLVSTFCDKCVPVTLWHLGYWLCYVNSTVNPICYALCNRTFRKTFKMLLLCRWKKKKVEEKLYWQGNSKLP
Description: (§1) To determine level of cAMP, cells in suspension were pre-incubated for 1 h with 0.4 μM [^3H]adenine, washed, and incubated for 10 min in the presence of isobutylmethylxanthine and 10 μM forskolin. […] Incubation was ended by addition of 0.2 ml of 2.5 M HCl to the samples. Samples were applied to alumina columns (1.5 g of alumina per column), washed with 2 ml ammonium acetate (pH=7.0) and eluted from columns with 4 ml ammonium acetate and measured by liquid scintillation spectrometry. […] The incubation was stopped by addition of 0.5 ml of chloroform methanol HCl mixture (2:1:0.1). After separation of water and organic phases, 0.6 ml of water phase was applied to Dowex columns (1.5 g of Dowex per column), washed by 20 ml of 60 mM ammonium formate/5 mM sodium borate buffer and eluted from columns with 4 ml of 1M ammonium formate/0.1 formic acid buffer and measured by liquid scintillation spectrometry.
(§2) Measurements of the production of cAMP and inositol phosphates: Levels of second messengers cAMP and inositol phosphates were determined in radiochemical chromatography assays as described previously. To determine level of cAMP, cells in suspension were pre-incubated for 1 h with 0.4 μM [^3H]adenine, washed, and incubated for 10 min in the presence of isobutylmethylxanthine and 10 μM forskolin. […] Incubation was ended by addition of 0.2 ml of 2.5 M HCl to the samples. Samples were applied to alumina columns (1.5 g of alumina per column), washed with 2 ml ammonium acetate (pH=7.0) and eluted from columns with 4 ml ammonium acetate and measured by liquid scintillation spectrometry. […] For this purpose, new CHO cell lines stably expressing promiscuous G15 G-protein and M2 or M4 receptor were generated by transfection with pCMV/hygro vector and hygromycin selection. To determine the rate of formation of inositol phosphates IPX, suspended cells were pre-incubated with 0.1 μM [^3H]myo-inositol for 60 min, washed, and incubated with 10 mM LiCl for 15 min. […] The incubation was stopped by addition of 0.5 ml of chloroform methanol HCl mixture (2:1:0.1). After separation of water and organic phases, 0.6 ml of water phase was applied to Dowex columns (1.5 g of Dowex per column), washed by 20 ml of 60 mM ammonium formate/5 mM sodium borate buffer and eluted from columns with 4 ml of 1M ammonium formate/0.1 formic acid buffer and measured by liquid scintillation spectrometry.
(§3) For bi-phasic response, curves were inhibitory and stimulatory phase were fitted separately. Operational Model of Functional Agonism
(§4) [formula] where y is functional response at concentration of tested compound x, EMAX is maximal response of the system, KA is equilibrium dissociation constant and nH is slope factor. Eq. 5 was fitted to data from functional experiments. Eq. 5 was fitted to data by the two-step procedure described earlier. […] In the second step, Eq. 5 with EMAX fixed to the value determined in the first step was fitted to individual experimental data sets. Relative Intrinsic Activity

[2] = target: T2, M2 muscarinic receptor (Homo sapiens, UniProt P08172); assay: accumulation of IPX, M2 CHO cells with promiscuous G15 G-protein (M2Gq+G15); design: expressed in transfected cells; host or cells: CHO cells, pCMV/hygro vector, hygromycin selection; conditions: for RAi / E′MAX / τ / Δlog(τ/KA): M2Gq ± G15 (↑IPX); for RAi: Table 8, relative to carbachol; for accumulation of IPX: M2 co-transfected with G15, in words; for E′MAX / τ: Table 8; for Δlog(τ/KA): Table 8, to carbachol
T2 sequence (P08172 1-466): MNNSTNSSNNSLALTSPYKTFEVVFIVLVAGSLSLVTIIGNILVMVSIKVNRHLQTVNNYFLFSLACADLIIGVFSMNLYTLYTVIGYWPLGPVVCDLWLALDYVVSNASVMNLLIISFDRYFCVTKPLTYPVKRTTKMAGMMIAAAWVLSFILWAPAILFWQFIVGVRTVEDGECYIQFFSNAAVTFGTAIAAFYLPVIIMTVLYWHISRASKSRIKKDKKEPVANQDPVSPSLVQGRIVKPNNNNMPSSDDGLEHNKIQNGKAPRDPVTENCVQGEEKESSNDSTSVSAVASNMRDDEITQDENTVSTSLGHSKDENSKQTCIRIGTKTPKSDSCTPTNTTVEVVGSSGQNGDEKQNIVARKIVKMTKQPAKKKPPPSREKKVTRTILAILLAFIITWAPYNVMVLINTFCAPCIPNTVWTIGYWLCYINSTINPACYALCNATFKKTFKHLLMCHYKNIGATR
Description: Since activation of phospholipase C (PLC) via M2 and M4 receptors is weak, cells were transferred with G15 G-protein to facilitate coupling.
as §1, §2, §3, §4
Muscarinic receptors are also able to stimulate non-preferential signalling pathways.

[3] = target: T2, M2 muscarinic receptor; assay: stimulation of cAMP, M2 CHO cells (M2Gs); design: host or cells: CHO cells, stably transfected; conditions: for RAi: Table 8, relative to carbachol; for Δlog(τ/KA): Table 8, to carbachol
Description: as §1, §2, §3, §4

| SMILES | EC50 [1] | E′MAX [1] | τ [1] | Kd [1] | RAi [1] | Δlog(τ/KA) [1] | RAi [2] | accumulation of IPX [2] | RAi ([3]; M2Gs (↑cAMP)) | E′MAX [2] | τ [2] | Δlog(τ/KA) [2] | E′MAX ([3]; M2Gs (↑cAMP), Table 8) | Δlog(τ/KA) ([3]; M2Gs (↑cAMP)) | EC50 [2] | Kd [2] | EC50 [3] | Kd [3] | τ ([3]; M2Gs (↑cAMP), Table 8) |
| --- | --- | --- | --- | --- | --- | --- | --- | --- | --- | --- | --- | --- | --- | --- | --- | --- | --- | --- | --- |
| C1=CCN(Cc2cccs2)CC1.Cl [Compound 6A, 1-[(thiophen-2-yl)methyl]-1,2,3,6-tetrahydropyridin-1-ium chloride] | 1580 nM | 1.19 ± 0.04 fold over basal | 0.009 ± 0.003 | 1580 nM | 0.0025 ± 0.0008 | 2.60 ± 0.82 | 0 | did not stimulate IPX accumulation | 0 | – | – | – | – | – | – | – | – | – | – |
| C[N+](C)(C)CCOC(N)=O [carbachol, reference compound] | – | 17 ± 2 fold over basal | 4.0 ± 0.4 | – | – | 0 | – | stimulated accumulation of IPX | – | 4.9 ± 0.3 fold over basal | 4.5 ± 0.5 | 0 | 3.6 ± 0.2 fold increase | 0 | – | – | – | – | – |
| C[N+]1(Cc2cccs2)CC=CCC1.[I-] (stereo not shown) [Compound 7A, 1-methyl-1-[(thiophen-2-yl)methyl]-1,2,3,6-tetrahydropyridin-1-ium iodide] | 7940 nM | 1.28 ± 0.05 fold over basal | 0.014 ± 0.003 | 2000 nM | 0.0007 ± 0.0002 | 3.17 ± 0.88 | 0 | did not stimulate IPX accumulation | 0 | – | – | – | – | – | – | – | – | – | – |
| O=C1CCCN1CC#CCN1CCCC1 [oxotremorine, reference compound] | – | 16 ± 1 fold over basal | 2.6 ± 0.3 | – | 4.12 ± 0.26 | −0.62 ± 0.07 | 2.41 ± 0.22 | – | 2.65 ± 0.018 | 4.1 ± 0.3 fold over basal | 1.9 ± 0.2 | −0.38 ± 0.05 | 3.1 ± 0.2 fold increase | −0.42 ± 0.04 | 70.8 nM | 200 nM | 1150 nM | 3980 nM | 2.3 ± 0.2 |
